This note sets out measurements from patent US8981087B2, “Benzo [E] [1,3] oxazin-4-one derivatives as phosphoinositide 3-kinase inhibitors” (Karus Therapeutics Limited, priority 2009, dated 2015).

Where two headings read alike, the source gives them in different places.

One test addresses PI3K-p110γ (Homo sapiens, UniProt P48736). As to the kind of experiment: Biochemical PI3K-p110γ inhibition.
A further test deals with PI3K-p110β (Homo sapiens, UniProt P42338). Nature of the test: Biochemical PI3K-p110β inhibition.
Sequence of PI3K-p110β (P42338 whole entry): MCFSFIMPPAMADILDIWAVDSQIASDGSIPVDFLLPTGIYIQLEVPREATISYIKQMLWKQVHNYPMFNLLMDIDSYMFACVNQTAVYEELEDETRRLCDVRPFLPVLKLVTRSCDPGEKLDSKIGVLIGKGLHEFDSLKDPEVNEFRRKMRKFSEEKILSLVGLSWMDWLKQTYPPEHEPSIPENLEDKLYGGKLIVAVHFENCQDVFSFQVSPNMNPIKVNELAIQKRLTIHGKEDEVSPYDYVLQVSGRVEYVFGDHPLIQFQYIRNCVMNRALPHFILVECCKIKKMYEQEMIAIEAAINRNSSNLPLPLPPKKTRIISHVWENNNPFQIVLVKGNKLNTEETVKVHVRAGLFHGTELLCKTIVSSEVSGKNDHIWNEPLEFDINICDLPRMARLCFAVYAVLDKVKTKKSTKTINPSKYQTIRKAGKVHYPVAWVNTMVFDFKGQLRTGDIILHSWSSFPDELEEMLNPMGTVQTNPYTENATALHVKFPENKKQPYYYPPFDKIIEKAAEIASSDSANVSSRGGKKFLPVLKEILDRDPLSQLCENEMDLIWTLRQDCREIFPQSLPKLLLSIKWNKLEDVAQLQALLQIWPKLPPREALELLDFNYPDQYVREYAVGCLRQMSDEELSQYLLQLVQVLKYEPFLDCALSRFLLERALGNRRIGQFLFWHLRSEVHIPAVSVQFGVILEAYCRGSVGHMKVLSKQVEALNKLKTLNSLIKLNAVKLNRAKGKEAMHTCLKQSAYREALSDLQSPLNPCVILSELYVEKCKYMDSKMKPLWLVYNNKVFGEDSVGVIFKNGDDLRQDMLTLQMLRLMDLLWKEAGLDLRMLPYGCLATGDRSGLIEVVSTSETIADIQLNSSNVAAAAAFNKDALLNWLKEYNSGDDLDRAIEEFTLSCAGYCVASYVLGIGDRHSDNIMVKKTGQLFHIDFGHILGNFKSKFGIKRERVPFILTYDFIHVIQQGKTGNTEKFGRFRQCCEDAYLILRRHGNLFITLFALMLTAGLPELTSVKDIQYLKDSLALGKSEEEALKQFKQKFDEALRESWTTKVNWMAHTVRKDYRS
Sequence of PI3K-p110β (P27986 whole entry partner): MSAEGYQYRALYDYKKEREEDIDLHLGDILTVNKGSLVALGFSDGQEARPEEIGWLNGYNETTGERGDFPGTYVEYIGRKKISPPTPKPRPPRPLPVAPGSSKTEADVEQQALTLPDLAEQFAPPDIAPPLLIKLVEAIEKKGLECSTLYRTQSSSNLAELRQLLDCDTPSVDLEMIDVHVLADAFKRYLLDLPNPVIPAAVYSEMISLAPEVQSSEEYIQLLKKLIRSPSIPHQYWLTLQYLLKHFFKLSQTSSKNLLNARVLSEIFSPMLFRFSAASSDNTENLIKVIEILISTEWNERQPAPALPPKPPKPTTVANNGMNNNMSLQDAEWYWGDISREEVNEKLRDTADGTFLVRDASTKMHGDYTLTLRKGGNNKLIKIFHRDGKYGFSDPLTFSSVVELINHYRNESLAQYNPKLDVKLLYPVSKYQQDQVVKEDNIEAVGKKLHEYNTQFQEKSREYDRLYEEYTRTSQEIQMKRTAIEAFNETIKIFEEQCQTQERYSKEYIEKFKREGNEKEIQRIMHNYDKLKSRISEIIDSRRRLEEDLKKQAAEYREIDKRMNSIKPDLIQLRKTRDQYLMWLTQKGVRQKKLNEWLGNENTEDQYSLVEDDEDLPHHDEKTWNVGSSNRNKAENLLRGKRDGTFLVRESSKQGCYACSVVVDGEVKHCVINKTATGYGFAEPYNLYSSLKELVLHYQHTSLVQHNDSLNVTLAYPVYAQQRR
Another test concerns the target PI3K-p110δ (Homo sapiens, UniProt O00329). Nature of the test: Biochemical PI3K-p110δ inhibition.
Another test addresses PI3K-p110 α (Homo sapiens, UniProt P42336). As to the kind of experiment: Biochemical PI3K-p110α inhibition.

Sequence of PI3K-p110γ (P48736 whole entry): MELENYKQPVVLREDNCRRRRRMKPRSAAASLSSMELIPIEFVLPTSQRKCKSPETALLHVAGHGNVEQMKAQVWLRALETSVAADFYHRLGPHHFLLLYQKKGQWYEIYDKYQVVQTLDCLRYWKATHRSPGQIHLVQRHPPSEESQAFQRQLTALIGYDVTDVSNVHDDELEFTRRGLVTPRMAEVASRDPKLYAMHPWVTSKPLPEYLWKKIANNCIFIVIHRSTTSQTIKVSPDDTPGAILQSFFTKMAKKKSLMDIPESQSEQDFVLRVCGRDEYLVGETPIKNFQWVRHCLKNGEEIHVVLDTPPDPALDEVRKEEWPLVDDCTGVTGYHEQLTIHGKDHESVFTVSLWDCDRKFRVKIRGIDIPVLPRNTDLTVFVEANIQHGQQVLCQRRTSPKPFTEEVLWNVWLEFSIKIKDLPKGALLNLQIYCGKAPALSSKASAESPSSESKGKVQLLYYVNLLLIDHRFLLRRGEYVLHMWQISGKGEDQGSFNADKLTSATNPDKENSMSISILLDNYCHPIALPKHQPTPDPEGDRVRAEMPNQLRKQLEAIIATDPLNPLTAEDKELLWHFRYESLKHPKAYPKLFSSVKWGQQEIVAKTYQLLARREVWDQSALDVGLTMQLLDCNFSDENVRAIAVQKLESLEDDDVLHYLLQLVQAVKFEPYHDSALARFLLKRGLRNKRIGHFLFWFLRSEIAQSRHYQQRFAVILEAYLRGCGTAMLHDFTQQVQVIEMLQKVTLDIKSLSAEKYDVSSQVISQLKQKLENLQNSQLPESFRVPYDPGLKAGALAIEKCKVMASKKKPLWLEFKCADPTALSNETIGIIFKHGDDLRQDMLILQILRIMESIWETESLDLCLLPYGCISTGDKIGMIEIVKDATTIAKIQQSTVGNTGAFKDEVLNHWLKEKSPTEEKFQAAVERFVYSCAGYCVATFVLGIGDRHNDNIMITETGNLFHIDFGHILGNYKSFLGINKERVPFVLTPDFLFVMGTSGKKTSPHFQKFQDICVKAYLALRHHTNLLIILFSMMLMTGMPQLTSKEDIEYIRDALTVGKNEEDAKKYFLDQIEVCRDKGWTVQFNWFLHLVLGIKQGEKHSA
Sequence of PI3K-p110δ (O00329 whole entry): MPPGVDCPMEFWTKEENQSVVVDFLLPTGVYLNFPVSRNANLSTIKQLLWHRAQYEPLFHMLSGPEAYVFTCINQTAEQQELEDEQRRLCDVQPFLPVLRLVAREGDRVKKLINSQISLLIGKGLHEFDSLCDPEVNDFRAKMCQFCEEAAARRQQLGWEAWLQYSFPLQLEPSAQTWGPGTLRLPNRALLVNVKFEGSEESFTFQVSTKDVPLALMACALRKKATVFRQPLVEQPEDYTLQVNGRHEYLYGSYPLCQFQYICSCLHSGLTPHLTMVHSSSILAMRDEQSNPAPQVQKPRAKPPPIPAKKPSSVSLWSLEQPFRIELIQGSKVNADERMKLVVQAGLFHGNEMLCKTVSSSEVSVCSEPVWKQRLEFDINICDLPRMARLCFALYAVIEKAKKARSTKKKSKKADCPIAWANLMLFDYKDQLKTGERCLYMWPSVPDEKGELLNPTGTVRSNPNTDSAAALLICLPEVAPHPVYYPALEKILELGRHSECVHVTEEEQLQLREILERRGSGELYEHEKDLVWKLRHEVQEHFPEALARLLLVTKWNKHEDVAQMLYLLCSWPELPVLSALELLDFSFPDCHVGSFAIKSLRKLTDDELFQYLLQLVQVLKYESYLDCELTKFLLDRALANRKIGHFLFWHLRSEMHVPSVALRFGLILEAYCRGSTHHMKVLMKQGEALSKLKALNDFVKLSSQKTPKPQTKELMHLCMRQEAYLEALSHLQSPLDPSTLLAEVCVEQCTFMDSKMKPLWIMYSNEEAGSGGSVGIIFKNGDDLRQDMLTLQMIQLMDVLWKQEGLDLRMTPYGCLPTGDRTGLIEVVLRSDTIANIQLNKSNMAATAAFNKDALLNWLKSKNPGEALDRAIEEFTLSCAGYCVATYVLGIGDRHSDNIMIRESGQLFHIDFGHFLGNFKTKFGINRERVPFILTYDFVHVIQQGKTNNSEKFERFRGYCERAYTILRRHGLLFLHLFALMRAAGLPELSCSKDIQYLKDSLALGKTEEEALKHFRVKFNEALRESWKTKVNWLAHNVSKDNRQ
Sequence of PI3K-p110δ (P27986 whole entry partner): as the sequence (P27986 whole entry partner) above
Sequence of PI3K-p110 α (P42336 whole entry): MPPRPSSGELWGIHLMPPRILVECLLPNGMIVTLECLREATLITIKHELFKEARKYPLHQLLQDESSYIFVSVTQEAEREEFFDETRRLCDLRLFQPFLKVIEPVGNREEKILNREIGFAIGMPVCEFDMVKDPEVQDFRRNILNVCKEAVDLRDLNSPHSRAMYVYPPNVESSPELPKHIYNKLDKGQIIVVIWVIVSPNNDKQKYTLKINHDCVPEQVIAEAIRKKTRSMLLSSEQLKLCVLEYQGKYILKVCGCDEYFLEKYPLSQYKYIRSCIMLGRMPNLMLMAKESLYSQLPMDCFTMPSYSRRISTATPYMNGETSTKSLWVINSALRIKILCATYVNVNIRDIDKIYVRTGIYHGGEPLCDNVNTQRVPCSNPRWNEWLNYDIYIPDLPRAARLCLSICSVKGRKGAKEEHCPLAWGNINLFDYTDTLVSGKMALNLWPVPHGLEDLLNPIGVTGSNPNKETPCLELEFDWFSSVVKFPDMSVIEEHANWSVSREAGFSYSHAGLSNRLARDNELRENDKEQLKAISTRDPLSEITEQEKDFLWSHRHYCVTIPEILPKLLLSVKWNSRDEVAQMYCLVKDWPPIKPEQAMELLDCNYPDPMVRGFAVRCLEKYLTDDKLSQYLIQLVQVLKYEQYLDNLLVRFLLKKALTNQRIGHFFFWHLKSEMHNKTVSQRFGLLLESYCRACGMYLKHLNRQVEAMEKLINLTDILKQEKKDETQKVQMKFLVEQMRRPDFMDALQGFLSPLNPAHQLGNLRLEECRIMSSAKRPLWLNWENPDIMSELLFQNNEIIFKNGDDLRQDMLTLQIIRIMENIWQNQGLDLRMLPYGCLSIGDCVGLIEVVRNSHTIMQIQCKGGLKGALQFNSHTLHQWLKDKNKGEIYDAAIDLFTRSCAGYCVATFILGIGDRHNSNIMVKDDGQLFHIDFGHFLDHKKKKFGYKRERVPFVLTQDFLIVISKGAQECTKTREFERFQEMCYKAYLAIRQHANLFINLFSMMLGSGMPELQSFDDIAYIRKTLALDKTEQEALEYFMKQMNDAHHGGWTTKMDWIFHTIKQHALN
Sequence of PI3K-p110 α (P27986 whole entry partner): as the sequence (P27986 whole entry partner) above

For the molecule `Nc1ccc(-c2cccc3c(=O)nc(N4CCOCC4)oc23)cc1` [Compound A, 8-(4-aminophenyl)-2-morpholino-4H-benzo[e][1,3]oxazin-4-one], the IC50 stood at 20.5 µM at PI3K-p110γ (Class IB enzyme, read-out: IC50 PI3K-p110γ (uM) (Class IB Enzyme)) and 2.34 µM at PI3K-p110β (Class IA enzyme, read-out: IC50 PI3K-p110β (uM) (Class IA Enzyme)). The “class IA/IB PI3K selectivity” value at PI3K-p110β (compared with industry-standard inhibitor LY294002, p110β vs p110γ) is “greater class IA/IB PI3K selectivity compared with industry-standard inhibitor, LY294002”.

For the molecule `Nc1ccc(-c2cccc3c(=O)nc(N4CCOCC4)oc23)c(F)c1` [Compound B, 8-(4-Amino-2-fluoro-phenyl)-2-morpholin-4-yl-benzo[e][1,3]oxazin-4-one], the IC50 against PI3K-p110δ was found to be 1690 nM; at PI3K-p110 α it was 3410 nM; on PI3K-p110γ (read-out: IC50 PI3K-p110γ), 17.8 µM; at PI3K-p110β (read-out: IC50 PI3K-p110β), 0.538 µM. The “selectivity for PI3K-p110β” value at PI3K-p110β (versus p110α, p110δ, p110γ) is “displays selectivity for PI3K-p110β”.
